In ChEMBL document CHEMBL1795329, “QSPR modeling of octanol/water partition coefficient for vitamins by optimal descriptors calculated with SMILES” (Eur J Med Chem, 2008):

Assays:
physchem = details: octanol/water
[1] = octanol/water

Row | logP [1] | SMILES | logP (physchem)
1 |  | C=CCC | 2.27
2 |  | C1C2CC3CC1CC(C2)C3 | 3.98
3 |  | Clc1cccc(Cl)c1-c1ccccc1 | 5.46
4 |  | CCCCCCCCCCC | 6.51
5 |  | c1ccc2c(c1)ccc1cc3c(ccc4ccccc43)cc12 | 6.84
6 |  | Clc1cc(Cl)c(-c2ccccc2)cc1Cl | 6.17
7 |  | Clc1cc(-c2ccccc2)c(Cl)c(Cl)c1Cl | 6.88
8 |  | CSC | 0.842
9 |  | CCCCCCCl | 3.58
10 |  | CCCCl | 1.99
11 |  | Cl/C=C/Cl | 1.51
12 |  | c1ccc2ccccc2c1 | 3.32
13 |  | CC(C)CCC[C@@H](C)[C@H]1CC[C@H]2C3=CC=C4C[C@@H](O)CC[C@]4(C)[C@H]3CC[C@]12C | 8.65
14 |  | Cc1cc(C)c(C)c(C)c1 | 4.74
15 |  | Cc1cc(C)c(C)cc1C | 4.74
16 |  | Brc1ccccc1Br | 3.59
17 |  | CCCCCCCCl | 4.11
18 |  | Clc1ccc(-c2ccccc2Cl)c(Cl)c1 | 6.17
19 |  | CC(C)CC(C)(C)C | 4.54
20 |  | Cc1cc2ccccc2cc1C | 4.61
21 |  | Clc1cc(Cl)c(-c2ccccc2)c(Cl)c1 | 6.17
22 |  | Clc1ccc(Cl)c(-c2ccccc2)c1 | 5.46
23 |  | Cc1ccccc1Cl | 3.5
24 |  | Cc1ccc2cc3ccccc3cc2c1 | 5.14

Row | logP [1] | SMILES | logP (physchem)
25 |  | CCCCC(C)C | 4.27
26 |  | Cc1ccc(Cl)cc1 | 3.5
27 |  | Cc1cc2ccccc2c2ccc3ccccc3c12 | 6.31
28 |  | c1cc2c3c(cccc3c1)CC2 | 4.07
29 |  | c1ccc2cc3cc4ccccc4cc3cc2c1 | 5.66
30 |  | Cc1ccc(C)c(C)c1C | 4.74
31 |  | Cc1cccc(C)c1C | 4.09
32 |  | Cc1ccc(C)c(C)c1 | 4.09
33 |  | Cc1cc(C)cc(C)c1 | 4.09
34 |  | Cc1ccc(C)c2c(C)cccc12 | 5.26
35 |  | Cc1cccc2c1Cc1ccccc1-2 | 4.87
36 |  | Cc1c2ccccc2cc2ccc3ccccc3c12 | 6.31
37 |  | Clc1cc(Cl)c(-c2ccccc2Cl)cc1Cl | 6.88
38 |  | Clc1ccc2c(ccc3ccccc32)c1 | 5.2
39 |  | CCC(C)C | 3.21
40 |  | Cc1ccc2c(ccc3ccccc32)c1 | 5.14
41 |  | Cc1cccc(Cl)c1 | 3.5
42 |  | Cc1c(C)c2c3ccccc3ccc2c2ccccc12 | 6.96
43 |  | Cc1cc2c3ccccc3ccc2c2ccccc12 | 6.31
44 |  | Cc1c2ccccc2cc2ccccc12 | 5.14
45 |  | c1ccc2c(c1)c1ccccc1c1ccccc21 | 5.66
46 |  | c1ccc2cc3c(ccc4ccccc43)cc2c1 | 5.66
47 |  | c1cc2ccc3ccc4ccc5cccc6c(c1)c2c3c4c56 | 6.58
48 |  | Clc1ccccc1-c1ccccc1 | 4.74

Row | logP [1] | SMILES | logP (physchem)
49 |  | Cc1ccc2cc(C)ccc2c1 | 4.61
50 |  | Clc1cccc2ccccc12 | 4.03
51 |  | Brc1ccc(Br)cc1 | 3.87
52 |  | Clc1ccc(-c2ccccc2Cl)cc1 | 5.46
53 |  | Cc1ccc2ccccc2c1 | 3.96
54 |  | c1ccc2c(c1)ccc1cc3ccc4ccccc4c3cc12 | 6.84
55 |  | CCCc1ccccc1 | 3.85
56 |  | C=CCCC | 2.79
57 |  | Clc1ccc(Cl)c(Cl)c1 | 4.28
58 |  | CCCC(C)C | 3.74
59 |  | c1ccc2c(c1)cc1ccc3cccc4ccc2c1c34 | 6.12
60 |  | CCc1cccc2ccccc12 | 4.49
61 |  | Cc1cccc2ccc3cc4ccccc4cc3c12 | 6.31
62 |  | CCCCCCl | 3.05
63 |  | Cc1ccc(C)c2ccccc12 | 4.61
64 |  | Clc1ccc2ccccc2c1 | 4.03
65 |  | Cc1cccc2ccccc12 | 3.96
66 |  | Cc1c2ccccc2cc2c1ccc1ccccc12 | 6.31
67 |  | Cc1ccc2c3ccccc3c3cccc4ccc1c2c43 | 6.77
68 |  | CCc1c2ccccc2cc2c1ccc1ccccc12 | 6.84
69 |  | c1cc2cccc3c4cccc5cccc(c(c1)c23)c54 | 6.12
70 |  | Cc1cccc2c(C)cccc12 | 4.61
71 |  | Clc1cc(Cl)c(Cl)c(Cl)c1 | 4.99
72 |  | c1ccc(CCc2ccccc2)cc1 | 4.89

Row | logP [1] | SMILES | logP (physchem)
73 |  | Clc1cccc(Cl)c1 | 3.57
74 |  | Clc1cc(Cl)c(Cl)cc1Cl | 4.74
75 |  | Clc1cccc(Cl)c1Cl | 4.28
76 |  | c1ccc2c(c1)ccc1ccccc12 | 4.49
77 |  | Cc1cc(C)c(C)c(C)c1C | 5.39
78 |  | Cc1c2ccccc2c(C)c2ccccc12 | 5.79
79 |  | c1ccc2c(c1)ccc1c3ccccc3ccc21 | 5.66
80 |  | ClC(Cl)C(Cl)Cl [1,1,2,2-TETRACHLOROETHANE] | 2.64
81 |  | BrCCBr [1,2-DIBROMOETHANE] | 1.74
82 |  | Clc1ccccc1Cl [1,2-DICHLOROBENZENE] | 3.57
83 |  | ClCCCl [1,2-DICHLOROETHANE] | 1.46
84 |  | Clc1cc(Cl)cc(Cl)c1 [1,3,5-TRICHLOROBENZENE] | 4.28
85 |  | Clc1ccc(Cl)cc1 [1,4-DICHLOROBENZENE] | 3.57
86 |  | CC(=O)Oc1cc(C)c(OC(C)=O)c2ccccc12 [ACETOMENAPHTHONE] | 3.59
87 |  | Nc1ncnc2c1ncn2[C@@H]1O[C@H](COP(=O)(O)O)[C@@H](O)[C@H]1O [ADENOSINE PHOSPHATE] | -1.68
88 |  | c1ccc2c(c1)Cc1c-2ccc2ccccc12 [BENZO(A)FLUORENE] | 5.4
89 |  | c1ccc2c3c(ccc2c1)-c1cccc2cccc-3c12 [BENZO(J)FLUORANTHENE] | 6.12
90 |  | c1ccc2cc3c(cc2c1)-c1cccc2cccc-3c12 [BENZO(K)FLUORANTHENE] | 6.12
91 |  | c1ccc2c(c1)-c1cccc3c1c-2cc1ccccc13 [BENZO[B]FLUORANTHENE] | 6.12
92 |  | c1ccc2c(c1)Cc1cc3ccccc3cc1-2 [BENZO[B]FLUORENE] | 5.4
93 |  | c1ccc2c(c1)c1cccc3ccc4cccc2c4c31 [BENZO[E]PYRENE] | 6.12
94 |  | O=C(O)CCCC[C@@H]1SC[C@@H]2NC(=O)N[C@@H]21 [BIOTIN] | 0.39
95 |  | c1ccc(-c2ccccc2)cc1 [BIPHENYL] | 4.03
96 |  | CCCC [BUTANE] | 2.81

Row | logP [1] | SMILES | logP (physchem)
97 |  | CCCCCl [BUTYL CHLORIDE] | 2.52
98 |  | CCCCc1ccccc1 [BUTYLBENZYL] | 4.74
99 |  | ClC(Cl)(Cl)Cl [CARBON TETRACHLORIDE] | 2.88
100 |  | Clc1ccccc1 [CHLOROBENZENE] | 2.85
101 |  | c1cc2c3c(c4ccc5ccccc5c4cc3c1)CC2 [CHOLANTHRENE] | 6.42
102 |  | C1CCCCCC1 [CYCLOHEPTANE] | 3.91
103 |  | C1CCCCC1 [CYCLOHEXANE] | 3.35
104 |  | C1=CCCCC1 [CYCLOHEXENE] | 2.81
105 |  | C1CCCCCCC1 [CYCLOOCTANE] | 4.47
106 |  | C1CCCC1 [CYCLOPENTANE] | 2.79
107 |  | C1=CCCC1 [CYCLOPENTENE] | 2.25
108 |  | CCCCCCCCCC [DECANE] | 5.98
109 |  | CCSCC [DIETHYL SULFIDE] | 1.9
110 | 10.44 | C=C1CC[C@H](O)C/C1=C/C=C1\CCC[C@]2(C)[C@@H]([C@H](C)/C=C/[C@H](C)C(C)C)CC[C@@H]12 [ERGOCALCIFEROL] | 
111 |  | CCCl [ETHYL CHLORIDE] | 1.47
112 |  | CCc1ccccc1 [ETHYLBENZENE] | 3.32
113 |  | c1ccc2c(c1)-c1cccc3cccc-2c13 [FLUORANTHENE] | 4.95
114 |  | c1ccc2c(c1)Cc1ccccc1-2 [FLUORENE] | 4.22
115 |  | Nc1nc2ncc(CNc3ccc(C(=O)N[C@@H](CCC(=O)O)C(=O)O)cc3)nc2c(=O)[nH]1 [FOLIC ACID] | -2.81
116 |  | CCCCCCC [HEPTANE] | 4.4
117 |  | Cc1c(C)c(C)c(C)c(C)c1C [HEXAMETHYLBENZENE] | 6.04
118 |  | CCCCCC [HEXANE] | 3.87
119 |  | CC(C)c1ccccc1 [ISOPROPYLBENZENE] | 3.72
120 |  | Cc1cccc(C)c1 [M-XYLENE] | 3.44

Row | logP [1] | SMILES | logP (physchem)
121 |  | C[S+](C)CC[C@H](N)C(=O)O [METHYLMETHIONINE SULFONIUM CHLORIDE] | 0.28
122 |  | CCCCCCCCC [NONANE] | 5.46
123 |  | Cc1ccccc1C [O-XYLENE] | 3.44
124 |  | CCCCCCCC [OCTANE] | 4.93
125 |  | Cc1ccc(C(C)C)cc1 [P-CYMENE] | 4.37
126 |  | Cc1ccc(C)cc1 [P-XYLENE] | 3.44
127 |  | CC(C)(CO)[C@@H](O)C(=O)NCCC(=O)O [PANTOTHENIC ACID] | -1.69
128 |  | Clc1cc(Cl)c(Cl)c(Cl)c1Cl [PENTACHLOROBENZENE] | 5.71
129 |  | CCCCC [PENTANE] | 3.34
130 |  | Clc1c(Cl)c(Cl)c(Cl)c(Cl)c1Cl [PERCHLOROBENZENE] | 6.42
131 | 11.71 | CC1=C(C/C=C(\C)CCC[C@H](C)CCC[C@H](C)CCCC(C)C)C(=O)c2ccccc2C1=O [PHYTONADIONE] | 
132 |  | c1cc2ccc3cccc4ccc(c1)c2c34 [PYRENE] | 4.95
133 | -2.02 | C[C@@H]1O[C@@H](OC[C@H]2O[C@@H](Oc3c(-c4ccc(O)c(O)c4)oc4cc(O)cc(O)c4c3=O)[C@H](O)[C@@H](O)[C@@H]2O)[C@H](O)[C@H](O)[C@H]1O [RUTIN] | 
134 |  | ClC(Cl)=C(Cl)Cl [TETRACHLOROETHYLENE] | 3.02
135 |  | Cc1ncc(C[n+]2csc(CCO)c2C)c(N)n1 [THIAMINE ION] | -3.93
136 |  | CC(Cl)(Cl)Cl [TRICHLOROETHANE] | 2.48
137 |  | ClC=C(Cl)Cl [TRICHLOROETHYLENE] | 2.27
138 |  | FC(Cl)(Cl)Cl [TRICHLOROMONOFLUOROMETHANE] | 2.44
139 |  | CC1=C(/C=C/C(C)=C/C=C/C(C)=C/CO)C(C)(C)CC=C1 [VITAMIN A2] | 7.41
140 |  | NC1=C2NCN=C2N=CN1 [VITAMIN B4] | -0.09
141 |  | Cc1cc(O)c2ccccc2c1O [VITAMIN K3H2] | 2.76
142 |  | CCC(C)(C)c1ccccc1 [tert-Amylbenzene] | 4.65
143 |  | CC(C)(C)c1ccccc1 [tert-Butylbenzene] | 4.12

Row | SMILES | logP [1] | logP (physchem)
144 | C=C1CC[C@H](O)C/C1=C/C=C1\CCC[C@]2(C)[C@@H]([C@H](C)CCCC(C)C)CC[C@@H]12 [CHOLECALCIFEROL] | 10.24 | 
145 | ClC(Cl)C(Cl)(Cl)Cl [PENTACHLOROETHANE] | 3.627 | 
